Experimental data taken from patent US20010044445A1, “AZOLE INHIBITORS OF CYTOKINE PRODUCTION” (priority 1999, published 2001).

Legend:
[1] = test system: Human peripheral blood mononuclear cells; test: Human Concanavalin-A Proliferation Assay (Con HU Assay); format: cell-based; conditions: Homo sapiens, PBMC, concanavalin-A stimulated human PBMC; for inhibition at 1 µM: 72 h, concentration 1 μm (in parentheses in the cell), 3 days, read-out: % Inhibition of proliferation (at concentrations of 1,10, or 100 μm); for IC50: tritiated thymidine
Procedure, shortened: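 Histopaque-isolated human PBMC (50,000/well) were pre-incubated 15 min with compounds, then stimulated with concanavalin-A at 2.5 μg/ml final for 3 days at 37 °C, 5% CO2. Proliferation measured by 6 h pulse with 0.5 μCi/well [3H]thymidine and beta counting.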

## Cc1nnsc1C(=O)Nc1ccc(-n2nc(C(F)(F)F)cc2O)cc1 [Example 288, N-[4-[5-hydroxy-3-(trifluoromethyl)-1H-pyrazol-1-yl]phenyl]-4-methyl-1,2,3-thiadiazole-5-carboxamide]
[1]
  inhibition at 1 µM: 16%
other
  melting point: 177 to 179 °C

## Cc1nc(C)n(-c2ccc(NC(=O)c3snnc3C)cc2)n1 [Example 289, N-[4-(3,5-dimethyl-1H-1,2,4-triazol-1-yl)phenyl]-4-methyl-1,2,3-thiadiazole-5-carboxamide]
[1]
  inhibition at 1 µM: 22%
other
  melting point: 144 to 145 °C

## COc1cncc(Cl)c1C(=O)Nc1ccc(-n2nc(C(F)(F)F)cc2C(F)(F)F)cc1 [Example 291, N-(4-(3,5-bis(trifluoromethyl)-1H-pyrazol-1-yl)phenyl)-3-chloro-5-methoxyisonicotinamide]
[1]
  IC50: 411 nM
other
  melting point: 187 to 188 °C

## C=C(C)C(=O)Nc1ccc(-n2nc(C(F)(F)F)cc2C(F)(F)F)cc1 [Example 295, N-(4-(3,5-bis(trifluoromethyl)-1H-pyrazol-1-yl)phenyl)-2-methylacrylamide]
[1]
  IC50: 232 nM
other
  melting point: 160 to 162 °C

## O=C(Nc1ccc(-n2nc(C(F)(F)F)cc2C(F)(F)F)cc1)c1ccc(Cl)cc1F [Example 296, N-(4-(3,5-bis(trifluoromethyl)-1H-pyrazol-1-yl)phenyl)-4-chloro-2-fluorobenzamide]
[1]
  IC50: 44 nM
other
  melting point: 156 to 158 °C

## Cc1nnsc1C(=O)Nc1ccc(-n2nc(C(F)(F)F)cc2C#N)cc1 [Example 302, N-(4-(5-cyano-3-(trifluoromethyl)-1H-pyrazol-1-yl)phenyl)-4-methyl-1,2,3-thiadiazole-5-carboxamide]
[1]
  IC50: 358 nM
other
  melting point: 193 to 195 °C

## N#Cc1cc(C(F)(F)F)nn1-c1ccc(NC(=O)c2ccncc2)cc1 [Example 303, N-(4-(5-cyano-3-(trifluoromethyl)-1H-pyrazol-1-yl)phenyl)isonicotinamide]
[1]
  IC50: 487 nM
other
  melting point: 145 to 146 °C

## N#Cc1cc(C(F)(F)F)nn1-c1ccc(NC(=O)c2ccncc2F)cc1 [Example 304, N-(4-(5-cyano-3-(trifluoromethyl)-1H-pyrazol-1-yl)phenyl)-3-fluoroisonicotinamide]
[1]
  IC50: 266 nM
other
  melting point: 161 to 162 °C

## N#Cc1cc(C(F)(F)F)nn1-c1ccc(NC(=O)c2cccnc2F)cc1 [Example 306, N-(4-(5-cyano-3-(trifluoromethyl)-1H-pyrazol-1-yl)phenyl)-2-fluoronicotinamide]
[1]
  IC50: 265 nM
other
  melting point: 150 to 151 °C

## O=C(Nc1ccc(-n2nc(C(F)(F)F)cc2-c2cccnc2)cc1)c1ccccc1F [Example 310, 2-fluoro-N-(4-(5-(3-pyridinyl)-3-(trifluoromethyl)-1H-pyrazol-1-yl)phenyl)benzamide]
[1]
  IC50: 335 nM
other
  melting point: 138 to 140 °C

## O=C(Nc1ccc(-n2nc(C(F)(F)F)cc2-c2cccs2)cc1)c1ccncc1F [Example 311, 3-fluoro-N-(4-(5-(2-thienyl)-3-(trifluoromethyl)-1H-pyrazol-1-yl)phenyl)isonicotinamide]
[1]
  IC50: 323 nM
other
  melting point: 153 to 155 °C

## COc1cc(C(F)(F)F)nn1-c1ccc(NC(=O)c2ccccc2F)cc1 [Example 313, 2-fluoro-N-(4-(5-methoxy-3-(trifluoromethyl)-1H-pyrazol-1-yl)phenyl)benzamide]
[1]
  IC50: 66 nM
other
  melting point: 167 to 168 °C

## COc1cc(C(F)(F)F)nn1-c1ccc(NC(=O)c2snnc2C)cc1 [Example 314, N-(4-(5-methoxy-3-(trifluoromethyl)-1H-pyrazol-1-yl)phenyl)-4-methyl-1,2,3-thiadiazole-5-carboxamide]
[1]
  IC50: 246 nM
other
  melting point: 159 to 160 °C

## CC(=O)c1cc(C(F)(F)F)nn1-c1ccc(NC(=O)c2cccnc2F)cc1 [Example 315, N-(4-(5-acetyl-3-(trifluoromethyl)-1H-pyrazol-1-yl)phenyl)-2-fluoronicotinamide]
[1]
  IC50: 320 nM
other
  melting point: 188 to 189 °C

## CSc1cc(C(F)(F)F)nn1-c1ccc(NC(=O)c2cccnc2F)cc1 [Example 316, 2-fluoro-N-(4-(5-(methylsulfanyl)-3-(trifluoromethyl)-1H-pyrazol-1-yl)phenyl)nicotinamide]
[1]
  IC50: 41 nM
other
  melting point: 167 to 168 °C

## COc1cc(C(F)(F)F)nn1-c1ccc(NC(=O)c2cccnc2F)cc1 [Example 317, 2-fluoro-N-(4-(5-methoxy-3-(trifluoromethyl)-1H-pyrazol-1-yl)phenyl)nicotinamide]
[1]
  IC50: 186 nM
other
  melting point: 153 to 154 °C

## CSc1cc(C(F)(F)F)nn1-c1ccc(NC(=O)c2ccncc2F)cc1 [Example 320, 3-fluoro-N-(4-(5-(methylsulfanyl)-3-(trifluoromethyl)-1H-pyrazol-1-yl)phenyl)isonicotinamide]
[1]
  IC50: 43 nM
other
  melting point: 142 to 143 °C

## COc1cc(C(F)(F)F)nn1-c1ccc(NC(=O)c2ccncc2F)cc1 [Example 321, 3-fluoro-N-(4-(5-methoxy-3-(trifluoromethyl)-1H-pyrazol-1-yl)phenyl)isonicotinamide]
[1]
  IC50: 185 nM
other
  melting point: 160 to 161 °C

## Cc1nnsc1C(=O)Nc1ccc(-n2nc(C(F)(F)F)cc2OC(F)F)cc1 [Example 323, N-(4-(5-(difluoromethoxy)-3-(trifluoromethyl)-1H-pyrazol-1-yl)phenyl)-4-methyl-1,2,3-thiadiazole-5-carboxamide]
[1]
  IC50: 238 nM
other
  melting point: 122 to 123 °C

## O=C(Nc1ccc(-n2nc(C(F)(F)F)cc2OC(F)F)cc1)c1cccnc1F [Example 324, N-(4-(5-(difluoromethoxy)-3-(trifluoromethyl)-1H-pyrazol-1-yl)phenyl)-2-fluoronicotinamide]
[1]
  IC50: 89 nM
other
  melting point: 149 to 150 °C

## O=C(Nc1ccc(-n2nc(C(F)(F)F)cc2OC(F)F)cc1)c1ccncc1F [Example 327, N-(4-(5-(difluoromethoxy)-3-(trifluoromethyl)-1H-pyrazol-1-yl)phenyl)-3-fluoroisonicotinamide]
[1]
  IC50: 82 nM
other
  melting point: 135 to 136 °C

## O=C(Nc1ccc(-n2nc(C(F)(F)F)cc2Cl)cc1)c1ccncc1F [Example 328, N-(4-(5-chloro-3-(trifluoromethyl)-1H-pyrazol-1-yl)phenyl)-3-fluoroisonicotinamide]
[1]
  IC50: 75 nM
other
  melting point: 128 to 129 °C

## Cc1nnsc1C(=O)Nc1ccc(-n2nc(C(F)(F)F)cc2Br)cc1 [Example 335, N-(4-(5-bromo-3-(trifluoromethyl)-1H-pyrazol-1-yl)phenyl)-4-methyl-1,2,3-thiadiazole-5-carboxamide]
[1]
  IC50: 103 nM
other
  melting point: 145 to 147 °C

## O=C(Nc1ccc(-n2nc(C(F)(F)F)nc2Cl)cc1)c1ccncc1F [Example 336, N-(4-(5-chloro-3-(trifluoromethyl)-1H-1,2,4-triazol-1-yl)phenyl)-3-fluoroisonicotinamide]
[1]
  IC50: 1830 nM
other
  melting point: 167 to 170 °C

## Cc1nnsc1C(=O)Nc1ccc(-n2nc(-c3nccs3)cc2C#N)cc1 [Example 340, N-(4-(5-cyano-3-(1,3-thiazol-2-yl)-1H-pyrazol-1-yl)phenyl)-4-methyl-1,2,3-thiadiazole-5-carboxamide]
[1]
  IC50: 251 nM
other
  melting point: 230 °C

## O=C(Nc1ccc(-n2nc(C3CCCO3)cc2C(F)(F)F)cc1)c1ccncc1F (centres unmarked) [Example 345, 3-fluoro-N-(4-(3-tetrahydro-2-furanyl-5-(trifluoromethyl)-1H-pyrazol-1-yl)phenyl)isonicotinamide]
[1]
  IC50: 273 nM
other
  melting point: 116 to 118 °C

## O=C(Nc1ccc(-n2nc(C(F)(F)F)cc2Cl)cc1)c1ccncc1Cl [Example 346, 3-chloro-N-(4-(5-chloro-3-(trifluoromethyl)-1H-pyrazol-1-yl)phenyl)isonicotinamide]
[1]
  IC50: 117 nM
other
  melting point: 184 to 185 °C

## O=C(Nc1ccc(-n2nc(C(F)(F)F)cc2Br)cc1)c1cccc(F)c1F [Example 348, N-(4-(5-bromo-3-(trifluoromethyl)-1H-pyrazol-1-yl)phenyl)-2,3-difluorobenzamide]
[1]
  IC50: 114 nM
other
  melting point: 109 to 112 °C

## O=C(Nc1ccc(-n2nc(C(F)(F)F)cc2Br)cc1)c1ccncc1Cl [Example 349, N-(4-(5-bromo-3-(trifluoromethyl)-1H-pyrazol-1-yl)phenyl)-3-chloroisonicotinamide]
[1]
  IC50: 224 nM
other
  melting point: 79 to 82 °C

## N#Cc1cc(C(F)(F)F)nn1-c1ccc(NC(=O)c2ccccc2Cl)cc1 [Example 350, 2-chloro-N-(4-(5-cyano-3-(trifluoromethyl)-1H-pyrazol-1-yl)phenyl)benzamide]
[1]
  IC50: 240 nM
other
  melting point: 162 to 163 °C

## N#Cc1cc(C(F)(F)F)nn1-c1ccc(NC(=O)c2ccncc2Cl)cc1 [Example 351, 3-chloro-N-(4-(5-cyano-3-(trifluoromethyl)-1H-pyrazol-1-yl)phenyl)isonicotinamide]
[1]
  IC50: 309 nM
other
  melting point: 221 to 222 °C

## O=C(Nc1ccc(-n2nc(C(F)(F)F)cc2OC(F)F)cc1)c1ccccc1F [Example 352, N-(4-(5-(difluoromethoxy)-3-(trifluoromethyl)-1H-pyrazol-1-yl)phenyl)-2-fluorobenzamide]
[1]
  IC50: 141 nM
other
  melting point: 130 to 131 °C

## O=C(Nc1ccc(-n2nc(C(F)(F)F)cc2OC(F)F)cc1)c1ccccc1Cl [Example 353, 2-chloro-N-(4-(5-(difluoromethoxy)-3-(trifluoromethyl)-1H-pyrazol-1-yl)phenyl)benzamide]
[1]
  IC50: 174 nM
other
  melting point: 122 to 123 °C

## O=C(Nc1ccc(-n2nc(C(F)(F)F)cc2OC(F)F)cc1)c1cccc(F)c1F [Example 354, N-(4-(5-(difluoromethoxy)-3-(trifluoromethyl)-1H-pyrazol-1-yl)phenyl)-2,3-difluorobenzamide]
[1]
  IC50: 75 nM
other
  melting point: 154 to 155 °C
